Measurements: paper PMC3700763, “First human dose-escalation study with remogliflozin etabonate, a selective inhibitor of the sodium-glucose transporter 2 (SGLT2), in healthy subjects and in subjects with type 2 diabetes mellitus” (BMC Pharmacology & Toxicology, 2013)
Marks after values point to notes of the source that are not given here.

Experiments:
[1] = Plasma pharmacokinetics, T2DM subjects; type: in vivo, human; conditions: for AUC(0-inf) / Cmax / Tmax / half-life: human, plasma analyte; for AUC(0-inf): read-out: AUC(0–∞) Geometric mean (CV%); for Cmax: read-out: Cmax Geometric mean (CV%); for Tmax: read-out: Tmax Median; for half-life: read-out: T½ Geometric mean (CV%) (converted)
Method: Six subjects with T2DM received two doses of remogliflozin etabonate and a placebo dose, in a randomized, dose escalating, crossover design, along with an oral glucose load on three study sessions separated by 7–14 days. Full PK and safety profiles were measured on Day 1 of each dosing period. The doses selected for this portion of the study, 50 mg and 500 mg, were based on data obtained in Part A. In each dosing period, subjects were assigned to active vs placebo in a 2:1 ratio. On each dosing day, a series of 2.0 mL blood samples were collected at pre-dose and 10, 20, 30 and 45 min, and 1, 1.25, 1.5, 2, 2.5, 3, 4, 6, 8, 12, 16, and 24 h post-dose for the determination of remogliflozin etabonate, remogliflozin and GSK279782 in plasma by using high-performance liquid chromatography with tandem mass spectrometry (MS/MS) as described. Non-compartmental PK analysis of plasma concentration–time data was performed using WinNonlin Version 4.1 (Pharsight Corporation, Mountainview, CA, USA). The Cmax and Tmax were obtained directly from the data. Areas under the plasma concentration–time curves from time zero to the last quantifiable time point (AUC[0–last]) and extrapolated to infinity (AUC[0–∞]) were calculated using the log-linear trapezoidal method. The terminal plasma elimination rate-constant (λz) was estimated from log-linear regression analysis of the terminal phase of the plasma concentration–time curve, and the T½ was calculated as T½ = ln2/λz. Ratios of AUC(0–∞) remogliflozin to AUC(0–last) remogliflozin etabonate were calculated including molecular weight corrections.

SGLT-2 = test system: SGLT-2; design: method as in PMID 22851617; conditions: relative to remogliflozin; cited from earlier work
[2] = Plasma pharmacokinetics, healthy subjects; type: in vivo, human; conditions: for Tmax / half-life / AUC(0-inf) / Cmax: human; for AUC(0-inf): read-out: AUC(0-∞) Geometric mean (CV%); for Cmax: read-out: Cmax Geometric mean (CV%); for AUC ratio (remogliflozin/remogliflozin etabonate) Geometric mean: molecular weight corrected
Method: Ten healthy subjects were evaluated in 5 study sessions, each separated by approximately 2 weeks. At each study session, subjects received either an oral dose of remogliflozin etabonate or placebo after an overnight fast. Remogliflozin etabonate doses were 20 mg, 50 mg, 150 mg, 500 mg and 1000 mg. Over the course of participation in the study, each subject received 4 of the 5 active remogliflozin etabonate doses and 1 dose of placebo (4:1 active to placebo ratio per treatment period). The available safety and PK results from each dosing period were evaluated before proceeding to the next dose level. On each dosing day, a series of 2.0 mL blood samples were collected at pre-dose and 10, 20, 30 and 45 min, and 1, 1.25, 1.5, 2, 2.5, 3, 4, 6, 8, 12, 16, and 24 h post-dose for the determination of remogliflozin etabonate, remogliflozin and GSK279782 in plasma by using high-performance liquid chromatography with tandem mass spectrometry (MS/MS) as described. Non-compartmental PK analysis of plasma concentration–time data was performed using WinNonlin Version 4.1 (Pharsight Corporation, Mountainview, CA, USA). The Cmax and Tmax were obtained directly from the data. Areas under the plasma concentration–time curves from time zero to the last quantifiable time point (AUC[0–last]) and extrapolated to infinity (AUC[0–∞]) were calculated using the log-linear trapezoidal method. The terminal plasma elimination rate-constant (λz) was estimated from log-linear regression analysis of the terminal phase of the plasma concentration–time curve, and the T½ was calculated as T½ = ln2/λz. Ratios of AUC(0–∞) remogliflozin to AUC(0–last) remogliflozin etabonate were calculated including molecular weight corrections. Safety and pharmacodynamic data were summarized using descriptive statistics. This was a small exploratory study and no formal hypothesis-testing was conducted. Dose proportionality with respect to Cmax, and AUC was assessed using the power model y = α dose^β, where y = Cmax or AUC, and α denotes a random subject effect. The exponent β in the power model will be estimated by regressing the loge-transformed PK parameters on loge dose, i.e. ln(PK parameter) = ln(α) + β * ln(dose). Dose proportionality implied that β = 1 and was assessed by estimating β and its corresponding 90% confidence interval. The power model was fitted by restricted maximum likelihood using SAS Proc Mixed.

SGLT2 over SGLT1 = test system: SGLT2 over SGLT1; design: method as in PMID 12139397; conditions: cited from earlier work
[3] = remogliflozin etabonate 50 mg oral dose
[4] = remogliflozin etabonate 500 mg oral dose (prodrug n = 2)
[5] = remogliflozin etabonate 500 mg oral dose
[6] = plasma, po, 20 mg, plasma analyte, healthy subjects, remogliflozin etabonate 20 mg oral dose, read-out: T½ Geometric mean (CV%) (converted)
[7] = plasma, po, 50 mg, plasma analyte, healthy subjects, remogliflozin etabonate 50 mg oral dose, read-out: T½ Geometric mean (CV%) (converted)
[8] = plasma, po, 150 mg, plasma analyte, healthy subjects, remogliflozin etabonate 150 mg oral dose, read-out: T½ Geometric mean (CV%) (converted)
[9] = plasma, po, 500 mg, plasma analyte, healthy subjects, remogliflozin etabonate 500 mg oral dose, read-out: T½ Geometric mean (CV%) (converted)
[10] = plasma, po, 1000 mg, plasma analyte, healthy subjects, remogliflozin etabonate 1000 mg oral dose, read-out: T½ Geometric mean (CV%) (converted)
[11] = plasma analyte, healthy subjects, remogliflozin etabonate 20 mg oral dose
[12] = plasma analyte, healthy subjects, remogliflozin etabonate 20 mg oral dose, read-out: Tmax Median
[13] = plasma analyte, healthy subjects, remogliflozin etabonate 50 mg oral dose
[14] = plasma analyte, healthy subjects, remogliflozin etabonate 50 mg oral dose, read-out: Tmax Median
[15] = plasma analyte, healthy subjects, remogliflozin etabonate 150 mg oral dose
[16] = plasma analyte, healthy subjects, remogliflozin etabonate 150 mg oral dose, read-out: Tmax Median
[17] = plasma analyte, healthy subjects, remogliflozin etabonate 500 mg oral dose
[18] = plasma analyte, healthy subjects, remogliflozin etabonate 500 mg oral dose, read-out: Tmax Median
[19] = plasma analyte, healthy subjects, remogliflozin etabonate 1000 mg oral dose
[20] = plasma analyte, healthy subjects, remogliflozin etabonate 1000 mg oral dose, read-out: Tmax Median

Structure (SMILES)	AUC(0-inf) [1, 3] [ng·h/mL]	Cmax [1, 3] [ng/mL]	Tmax [1, 3] [h]	half-life [1, 3] [h]	AUC(0-inf) [1, 4] [ng·h/mL]	half-life [1, 4] [h]	Cmax [1, 5] [ng/mL]	Tmax [1, 5] [h]	half-life [2, 6] [h]	half-life [2, 7] [h]	half-life [2, 8] [h]	half-life [2, 9] [h]	half-life [2, 10] [h]	AUC(0-inf) [2, 11] [ng·h/mL]	Cmax [2, 11] [ng/mL]	Tmax [2, 12] [h]	AUC(0-inf) [2, 13] [ng·h/mL]	Cmax [2, 13] [ng/mL]	Tmax [2, 14] [h]	AUC(0-inf) [2, 15] [ng·h/mL]	further results
Cc1[nH]nc(O[C@@H]2O[C@H](CO)[C@@H](O)[C@H](O)[C@H]2O)c1Cc1ccc(OC(C)C)cc1 [GSK279782]	130	34.6	1.74	2.05	1290	3.28	314	2.75	1.54	2.19	2.28	3.07	3.5	51.8	17.5	1.26	145	50.2	1.38	447	Potency in inhibiting SGLT-2 in vitro (SGLT-2): as potent as remogliflozin; Tmax ([2]; plasma, oral, healthy subjects, 20-1000 mg, read-out: median Tmax estimates, range across doses): 1 to 1.5 h; half-life ([2]; plasma, oral, healthy subjects, 20-1000 mg, read-out: median T½ estimates, range across doses): 1.54 to 3.5 h; Cmax [2, 15]: 155 ng/mL; Tmax [2, 16]: 1 h; AUC(0-inf) [2, 17]: 1520 ng·h/mL; Cmax [2, 17]: 498 ng/mL; Tmax [2, 18]: 1.5 h; AUC(0-inf) [2, 19]: 4000 ng·h/mL; Cmax [2, 19]: 1290 ng/mL; Tmax [2, 20]: 1.25 h
Cc1c(Cc2ccc(OC(C)C)cc2)c(O[C@@H]2O[C@H](CO)[C@@H](O)[C@H](O)[C@H]2O)nn1C(C)C [Remogliflozin, remogliflozin]	523	195	1.46	1.59	5180	3.93	1890	2.5	1.38	1.47	1.59	2.57	2.86	133	61	0.89	324	158	1.14	991	AUC(0–∞) ratio (Remogliflozin/remogliflozin etabonate) Geometric mean (CV%) ([1]; 50 mg oral dose): 59 (62); AUC(0–∞) ratio (Remogliflozin/remogliflozin etabonate) Geometric mean (CV%) ([1]; 500 mg oral dose): 54 (38); Selectivity for SGLT2 over SGLT1 (SGLT2 over SGLT1): high level of selectivity; AUC ratio (remogliflozin/remogliflozin etabonate) Geometric mean ([2]; healthy subjects, 20 mg oral dose, n = 5): 84^d; AUC ratio (remogliflozin/remogliflozin etabonate) Geometric mean ([2]; healthy subjects, 50 mg oral dose): 81; AUC ratio (remogliflozin/remogliflozin etabonate) Geometric mean ([2]; healthy subjects, 150 mg oral dose): 102; AUC ratio (remogliflozin/remogliflozin etabonate) Geometric mean ([2]; healthy subjects, 500 mg oral dose): 105; AUC ratio (remogliflozin/remogliflozin etabonate) Geometric mean ([2]; healthy subjects, 1000 mg oral dose): 95; Time to appearance in plasma at relatively high concentrations ([2]; healthy subjects, after remogliflozin etabonate dosing): ≤ 10 min; half-life ([2]; plasma, oral, both populations, independent of dose (abstract), read-out: mean plasma T½): 2 h; half-life ([2]; plasma, oral, healthy subjects, 20-1000 mg, read-out: mean T½ estimates, range across doses): 1.38 to 2.86 h; Tmax ([2]; plasma, both populations, after oral RE (abstract), read-out: time to maximum plasma concentration (Tmax)): ~1 h; Cmax [2, 15]: 515 ng/mL; Tmax [2, 16]: 0.66 h; AUC(0-inf) [2, 17]: 3720 ng·h/mL; Cmax [2, 17]: 1700 ng/mL; Tmax [2, 18]: 1.5 h; AUC(0-inf) [2, 19]: 10300 ng·h/mL; Cmax [2, 19]: 4820 ng/mL; Tmax [2, 20]: 1.25 h
